Laboratory results reported in publication PMC7824787, “Design, Synthesis and In Vitro Investigation of Novel Basic Celastrol Carboxamides as Bio-Inspired Leishmanicidal Agents Endowed with Inhibitory Activity against Leishmania Hsp90” (Biomolecules, 2021).
Where two headings read alike, the source gives them in different places.

Legend:
[1] = system: L. infantum promastigotes; assay: Antileishmanial activity on L. infantum promastigotes (MTT); type: cell-based
Procedure: (§1) Promastigote stage of L. infantum (MHOM/TN/80/IPT1, kindly provided by Dr. M. Gramiccia and Dr. T. Di Muccio, ISS, Roma) and L. tropica (MHOM/SY/2012/ISS3130) were cultured in RPMI 1640 medium (EuroClone) supplemented with 15% heat-inactivated fetal calf serum (EuroClone, Milan, Italy), 20 mM HEPES, and 2 mM L-glutamine at 23 °C. The MTT (3-[4.5-dimethylthiazol-2-yl]-2.5-diphenyltetrazolium bromide) method was used to estimate the 50% inhibitory concentration (IC50), with some modifications. Compounds were dissolved in DMSO and then diluted with medium to achieve the required concentrations. Test compounds were placed in 96 wells round bottom microplates and seven serial dilutions made. Amphotericin B was used as the reference antileishmanial drug. Parasites were diluted in complete medium to 5 × 10^6 parasites/mL and 100 μL of the suspension was seeded into the plates and incubated at 23 °C for 72 h. Then 20 μL of MTT solution (5 mg/mL) was added into each well, after 3 h the plates were centrifuged, the supernatants discarded and the resulting pellets dissolved in 100 μL of lysing buffer consisting of 20% (w/v) of a solution of SDS (Sigma), 40% of N,N-dimethylformamide (Merck) in H2O. The absorbance of the obtained solutions was measured at a wavelength of 550 nm with a reference at 650 nm with a microplate spectrophotometer (Synergy 4-Biotek, Milan, Italy) and analyzed with the Gen5® software for data processing.
(§2) The results are expressed as IC50, the dose of compound that is necessary to inhibit cell growth by 50%; each IC50 value is the mean ± standard deviation of at least three separate experiments performed in duplicate.

[2] = molecular target: LbHsp90 (Leishmania braziliensis, UniProt A4HL70); assay: In vitro inhibition of the ATPase activity of LbHsp90 (Malachite Green Phosphate Assay); type: biochemical; conditions: 7 μM LbHsp90, 27 °C, 60 min
Chain of LbHsp90 (A4HL70 entry or part of it): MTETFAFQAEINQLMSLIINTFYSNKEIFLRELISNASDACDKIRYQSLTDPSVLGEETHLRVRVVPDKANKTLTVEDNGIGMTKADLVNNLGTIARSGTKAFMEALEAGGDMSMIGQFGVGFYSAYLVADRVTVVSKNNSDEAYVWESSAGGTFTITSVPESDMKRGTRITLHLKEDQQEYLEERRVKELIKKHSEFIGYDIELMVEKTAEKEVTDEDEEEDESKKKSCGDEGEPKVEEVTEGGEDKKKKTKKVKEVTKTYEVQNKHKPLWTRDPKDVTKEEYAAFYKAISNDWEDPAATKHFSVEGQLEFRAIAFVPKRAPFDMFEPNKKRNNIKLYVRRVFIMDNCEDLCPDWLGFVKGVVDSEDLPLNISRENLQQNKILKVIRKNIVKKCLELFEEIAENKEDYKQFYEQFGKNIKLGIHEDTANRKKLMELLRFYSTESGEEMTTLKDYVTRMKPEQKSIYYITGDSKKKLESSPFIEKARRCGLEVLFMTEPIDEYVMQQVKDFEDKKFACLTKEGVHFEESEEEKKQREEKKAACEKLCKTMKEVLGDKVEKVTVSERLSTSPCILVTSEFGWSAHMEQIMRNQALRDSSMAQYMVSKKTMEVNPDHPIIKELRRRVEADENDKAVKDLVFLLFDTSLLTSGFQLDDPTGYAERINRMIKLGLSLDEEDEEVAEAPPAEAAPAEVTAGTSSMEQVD
Description: To evaluate in vitro the modulatory activity of CE, PR and CE caboxamides, a full-length recombinant Hsp90 from L. braziliensis (LbHsp90) was produced in E. coli BL21 DE3 harboring the pET28a_LbHsp90 coding for the C-terminal His-tagged target chaperone (genbank number: XP_001567804.1, full sequence is reported in Appendix B). Pratically, the plasmid pET28a_LbHsp90, kindly donated by professor J.C. Borges, was transformed in E. coli BL21 DE3 using the TransformAid Bacterial Transformation Kit (Thermo Fisher, Waltham, MA, USA). Subsequently, the obtained transformants were grown overnight in LB medium containing 30 μg mL^−1 kanamycin (LBkan30) and then inoculated in 1 L SB kan30 medium (Yeast extract 30 g L^−1, Tryptone 20 g L^−1, NaCl 10 g L^−1) at 37 °C and 220 rpm. When the OD600 reached 0.5–1, gene expression was induced by the addition of 2 mL of 1 M IPTG solution in water and the culture was shifted at 30 °C for 24 h. After cell harvesting by centrifugation (5000 rpm for 30 min), the cell pellet was resuspended in 20 mL of wash buffer (20 mM HEPES buffer, pH 7.0, 500 mM NaCl, 20 mM imidazole) and recombinant E. coli BL21DE3 cells were disrupted by ultrasonication. LbHsp90 was subsequently purified using a Nickel Sepharose 6 Fast Flow agarose resin (Ni-NTA) (GE Healthcare, Milan, Italy) as follows. Soluble protein fraction was separated from cell debris by centrifugation (10,000 rpm for 30min) after cell ultrasonication, and clear lysates were incubated with the Ni-NTA resin for 90 min at 4 °C under mild shaking and loaded onto a glass column (10 × 110 mm). The resin was then washed with 10mL of wash buffer and His-tagged LbHsp90 was eluted using a 3 step gradient (10 mL washing buffer containing 100, 200, and 300 mM imidazole, respectively) and dialyzed against 20 mM HEPES buffer (20 mM, pH 7.5), at 4 °C overnight. The protein content was measured using the Bio-Rad Protein Assay (Hercules, CA, USA) according to the Bradford method and the protein purity was verified by SDS-PAGE analysis (10% T, 2.6% C). It is worth noting that to avoid interferences with the assays described below, proteins were purified and conserved in HEPES buffer (20 mM, pH 7.5) in place of the standard PB-buffer. Reported data are the mean of two experiments run in duplicate.
Modulatory activity toward the ATPase cycle of LbHsp90 was determined using a Malachite Green Phosphate Assay Kit (Catalog Number MAK307, Sigma-Aldrich®, St. Louis, MO, USA). Analyses were run in a 96-well plate directly following the quantitative formation of a green complex between Malachite Green, molybdate, and free orthophosphate (Pi) produced by ATP hydrolysis catalyzed by the chaperone. Color formation from the reaction was measured on a plate reader at 620 nm. Briefly, the IC50 of CE and its derivatives were extrapolated from a set of dose-response curves obtained by calculating the amount of Pi produced by LbHsp90 in the presence of different compounds concentrations.
Reactions were run in HEPES buffer (20 mM, pH 7.5) containing 3 mM MgCl2 and 50 mM KCl in the presence of different compounds concentrations ([…]), LbHsp90 (7 μM) and ATP (25 mM) at 27 °C for 60 min. OD620 was measured 30 min after Malachite Green reactants addition.
LbHsp90 native activity was measured by conducting the reaction in the presence of just LbHsp90 and ATP and extrapolating the concentration of Pi obtained.
Three sets of control experiments, (1) ATP background hydrolysis, (2) compounds-related interferences and (3) protein-related background coloration, were run as follow: • (1) ATP (25 mM) incubated at 27 °C for 60 min • (2) Compounds (different concentrations) incubated with ATP (25 mM) at 27 °C for 60 min • (3) LbHsp90 (7 μM) at 27 °C for 60 min
The in vitro performances of CE, PR and the carboxamides 1–11 (Figure 4) as potential inhibitors of the Leishmania braziliensis Hsp90 were investigated using Sigma-Aldrich® Malachite Green Phosphate Assay Kit. […]

[3] = system: L. tropica promastigotes; assay: Antileishmanial activity on L. tropica promastigotes (MTT); type: cell-based
Procedure: as §1, §2

[4] = system: BMDM; assay: Cytotoxicity on BMDM (MTT); type: cell-based, mouse; conditions: 72 h, read-out: Healthy Cell Lines IC50, BMDM
Procedure: (§3) Cytotoxicity was evaluated on human microvascular endothelial cells (HMEC-1, provided by the Centers for Disease Control, Atlanta, GA, USA), on immortalized mouse C57Bl/6 bone marrow derived macrophages (BMDM) from wild type lineage (generated in the laboratories of Drs. Douglas Golenbock and Kate Fitzgerald, University of Massachusetts, Worcester, MA, USA) and on a human acute monocytic leukaemia cell line (THP-1).
(§4) HMEC-1 were maintained in MCDB 131 medium (Invitrogen, Milan, Italy) supplemented with 10% fetal calf serum (HyClone), 10 ng/mL of epidermal growth factor, 1 μg/mL of hydrocortisone, 2 mM glutamine and 20 mM HEPES buffer, at 37 °C in 5% CO2. BMDM were maintained in DMEM (Euroclone) medium supplemented with 10% fetal bovine serum (HyClone, Celbio, Milan, Italy), 2 mM glutamine, and 25 mM of HEPES buffer solution (Euroclone). THP-1 were maintained in RPMI supplemented with 10% heat-inactivated FCS, 50 µM 2-mercaptoethanol, 10 µM sodium pyruvate, 20 mM HEPES, and 2 mM glutamine. In order to achieve differentiation into macrophages, cells were treated with 10 ng/mL phorbol myristate acetate (PMA) for 72 h.
(§5) For the cytotoxicity assay, cells were seeded in 96 well flat bottom tissue culture clusters (Costar, New York, NY, USA) at the following concentrations: HMEC 10^5 cell/mL, BMDM at 10^6 cell/mL, THP1 at 5 × 10^5 cell/mL. After 24 h, cells were treated with serial dilutions of test compounds in a final volume of 200 µL/well. Cell proliferation was evaluated after 72 h using the MTT assay.
(§6) The absorbances were measured with a microplate spectrophotometer (Synergy 4-Biotek) at a test wavelength of 550 nm and a reference wavelength of 650 nm. The results are expressed as IC50 as the concentration inhibiting 50% of cell growth. Each IC50 value is the mean and standard deviation of at least three separate experiments performed in duplicate.

[5] = system: THP-1; assay: Cytotoxicity on THP-1 (MTT); type: cell-based, human; conditions: read-out: Healthy Cell Lines IC50, THP-1
Procedure: as §3, §4, §5, §6

[6] = system: HMEC-1; assay: Cytotoxicity on HMEC-1 (MTT); type: cell-based, human; conditions: read-out: Healthy Cell Lines IC50, HMEC-1
Procedure: as §3, §4, §5, §6

[7] = Leishmania tropica, 72 h, 23 °C, MTT, read-out: Leishmania Promastigotes IC50, L. tropica
[8] = Homo sapiens, THP-1, PMA-differentiated, 72 h, MTT
[9] = Homo sapiens, HMEC-1, 72 h, MTT
[10] = Leishmania infantum; 72 h, 23 °C, MTT; read-out: Leishmania Promastigotes IC50, L. infantum
[11] = Leishmania tropica; 72 h, 23 °C, MTT; read-out: Leishmania Promastigotes IC50, L. tropica
[12] = 72 h, 23 °C, MTT; read-out: Leishmania Promastigotes IC50, L. tropica

| Molecule | IC50 [2] | IC50 [3, 7] | IC50 ([4]; Mus musculus, BMDM, MTT) | IC50 [5, 8] | melting point | IC50 [6, 9] | IC50 [1, 10] | IC50 [3, 11] | IC50 [3, 12] | further results |
| --- | --- | --- | --- | --- | --- | --- | --- | --- | --- | --- |
| CC1=C(O)C(=O)C=C2C1=CC=C1[C@@]2(C)CC[C@@]2(C)[C@@H]3C[C@](C)(C(=O)NCCCNc4ccnc5cc(Cl)ccc45)CC[C@]3(C)CC[C@]12C [compound 7, (2R,4aS,6aS,12bR,14aS,14bR)-N-(3-((7-chloroquinolin-4-yl)amino)propyl)-10-hydroxy-2,4a,6a,9,12b,14a-hexamethyl-11-oxo-1,2,3,4,4a,5,6,6a,11,12b,13,14,14a,14b-tetradecahydropicene-2-carboxamide] | > 125 µM | 0.15 ± 0.04 µM | 1.78 ± 0.53 µM | 0.48 ± 0.17 µM | 211.1 to 215 °C | 0.13 ± 0.01 µM | – | – | – | IC50 ([1]; Leishmania infantum, 72 h, 23 °C, MTT, read-out: Leishmania Promastigotes IC50, L. infantum): 0.2 ± 0.01 µM |
| C=CCSSCCNC(=O)[C@]1(C)CC[C@]2(C)CC[C@]3(C)C4=CC=C5C(=CC(=O)C(O)=C5C)[C@]4(C)CC[C@@]3(C)[C@@H]2C1 [compound 10, (2R,4aS,6aS,12bR,14aS,14bR)-N-(2-(allyldisulfanyl)ethyl)-10-hydroxy-2,4a,6a,9,12b,14a-hexamethyl-11-oxo-1,2,3,4,4a,5,6,6a,11,12b,13,14,14a,14b-tetradecahydropicene-2-carboxamide] | > 125 µM | – | 2.86 ± 0.17 µM | 0.93 ± 0.27 µM | 173.7 to 175.1 °C | – | 0.46 ± 0.12 µM | 0.34 ± 0.21 µM | – | IC50 ([6]; Homo sapiens, HMEC-1, 72 h): 0.17 ± 0.04 µM |
| COC(=O)[C@]1(C)CC[C@]2(C)CC[C@]3(C)C4=CC=C5C(=CC(=O)C(O)=C5C)[C@]4(C)CC[C@@]3(C)[C@@H]2C1 [PR, pristimerin, reference compound] | – | – | – | – | – | – | – | – | – | IC50 ([1]; Leishmania infantum, 72 h, read-out: Leishmania Promastigotes IC50, L. infantum): 0.26 ± 0.02 µM; IC50 ([3]; Leishmania tropica, 72 h, read-out: Leishmania Promastigotes IC50, L. tropica): 0.24 ± 0.04 µM; IC50 ([4]; Mus musculus, BMDM): 1.27 ± 0.09 µM; IC50 ([5]; Homo sapiens, THP-1, 72 h): 1.1 ± 0.35 µM |
| CC1=C(O)C(=O)C=C2C1=CC=C1[C@@]2(C)CC[C@@]2(C)[C@@H]3C[C@](C)(C(=O)NCCCN4CCCCC4)CC[C@]3(C)CC[C@]12C [compound 2, (2R,4aS,6aS,12bR,14aS,14bR)-10-hydroxy-2,4a,6a,9,12b,14a-hexamethyl-11-oxo-N-(3-(piperidin-1-yl)propyl)-1,2,3,4,4a,5,6,6a,11,12b,13,14,14a,14b-tetradecahydropicene-2-carboxamide] | > 125 µM | – | – | 1.78 ± 0.48 µM | – | – | 0.26 ± 0.06 µM | 0.21 ± 0.04 µM | – | – |
| CC1=C(O)C(=O)C=C2C1=CC=C1[C@@]2(C)CC[C@@]2(C)[C@@H]3C[C@](C)(C(=O)NCSS(C)(=O)=O)CC[C@]3(C)CC[C@]12C [compound 8, S-(((2R,4aS,6aS,12bR,14aS,14bR)-10-hydroxy-2,4a,6a,9,12b,14a-hexamethyl-11-oxo-1,2,3,4,4a,5,6,6a,11,12b,13,14,14a,14b-tetradecahydropicene-2-carboxamido)methyl) methanesulfonothioate] | 67 ± 3 µM | 2 to 4 µM | 13.9 ± 2.78 µM | 2.51 ± 0.87 µM | – | 3.03 ± 0.01 µM | – | – | 3.44 ± 1.12 µM | – |
| (6bS,8aS,11R,12aR,12bS,14aR)-3-hydroxy-4,6b,8a,11,12b,14a-hexamethyl-11-(((((2R,3R,4R,5S,6R)-2,4,5-trihydroxy-6-(hydroxymethyl)tetrahydro-2H-pyran-3-yl)amino)oxy)carbonyl)-7,8,8a,9,10,11,12,12a,12b,13,14,14a-dodecahydropicen-2(6bH)-one [compound 11] | 47 ± 5 µM | – | – | – | – | – | – | – | 15.2 ± 2.71 µM | IC50 ([1]; 72 h, 23 °C, MTT; read-out: Leishmania Promastigotes IC50, L. infantum): 14.5 ± 1.96 µM; IC50 ([4]; MTT): > 15.9 µM; IC50 ([5]; PMA-differentiated, 72 h, MTT): > 15.9 µM; IC50 ([6]; 72 h, MTT): > 14.2 µM |
